Results taken from ChEMBL document CHEMBL5104195, “Discovery of Orally Bioavailable SOS1 Inhibitors for Suppressing KRAS-Driven Carcinoma” (J Med Chem, 2022).

What was measured:
[1] = Toxicity in BALB/c nude mouse xenografted with human MIA PaCa-21 cells expressing KRAS G12C mutant assessed as animal death at 50 mg/kg, po qd measured on day 21; conditions: in vivo, 504 h
[2] = MRT in ICR mouse at 50 mg/kg, po measured up to 24 hrs by LC-MS/MS analysis; conditions: in vivo
[3] = Plasma protein binding in dog at 2 uM preincubated for 1 hr by balanced dialysis based LC-MS/MS analysis
[4] = Plasma protein binding in rat at 2 uM preincubated for 1 hr by balanced dialysis based LC-MS/MS analysis
[5] = Plasma protein binding in mouse at 2 uM preincubated for 1 hr by balanced dialysis based LC-MS/MS analysis
in vivo [6] = conditions: ICR, mouse, po, 50 mg/kg
[7] = Toxicity in BALB/c nude mouse xenografted with human MIA PaCa-21 cells expressing KRAS G12C mutant assessed as weight loss at 50 mg/kg, po qd measured on day 21; conditions: in vivo
[8] = Elimination rate constant in ICR mouse at 50 mg/kg, po measured up to 24 hrs by LC-MS/MS analysis; conditions: in vivo
[9] = Plasma protein binding in monkey at 2 uM preincubated for 1 hr by balanced dialysis based LC-MS/MS analysis; conditions: rhesus monkey
in vivo [10] = conditions: ICR, mouse, po, 50 mg/kg; remark: listed apart in the source
in vivo [11] = conditions: ICR, mouse, po, 50 mg/kg; remark: listed apart in the source
[12] = Half life in ICR mouse at 50 mg/kg, po measured up to 24 hrs by LC-MS/MS analysis; conditions: in vivo
[13] = molecular target: T1, Son of sevenless homolog 1 (Homo sapiens, UniProt Q07889); experiment: Inhibition of SOS1 in human DLD-1 cells assessed as reduction in ERK phosphorylation incubated for 1 hr by fluorescence assay; assay type: cell-based
T1 sequence (Q07889 whole entry): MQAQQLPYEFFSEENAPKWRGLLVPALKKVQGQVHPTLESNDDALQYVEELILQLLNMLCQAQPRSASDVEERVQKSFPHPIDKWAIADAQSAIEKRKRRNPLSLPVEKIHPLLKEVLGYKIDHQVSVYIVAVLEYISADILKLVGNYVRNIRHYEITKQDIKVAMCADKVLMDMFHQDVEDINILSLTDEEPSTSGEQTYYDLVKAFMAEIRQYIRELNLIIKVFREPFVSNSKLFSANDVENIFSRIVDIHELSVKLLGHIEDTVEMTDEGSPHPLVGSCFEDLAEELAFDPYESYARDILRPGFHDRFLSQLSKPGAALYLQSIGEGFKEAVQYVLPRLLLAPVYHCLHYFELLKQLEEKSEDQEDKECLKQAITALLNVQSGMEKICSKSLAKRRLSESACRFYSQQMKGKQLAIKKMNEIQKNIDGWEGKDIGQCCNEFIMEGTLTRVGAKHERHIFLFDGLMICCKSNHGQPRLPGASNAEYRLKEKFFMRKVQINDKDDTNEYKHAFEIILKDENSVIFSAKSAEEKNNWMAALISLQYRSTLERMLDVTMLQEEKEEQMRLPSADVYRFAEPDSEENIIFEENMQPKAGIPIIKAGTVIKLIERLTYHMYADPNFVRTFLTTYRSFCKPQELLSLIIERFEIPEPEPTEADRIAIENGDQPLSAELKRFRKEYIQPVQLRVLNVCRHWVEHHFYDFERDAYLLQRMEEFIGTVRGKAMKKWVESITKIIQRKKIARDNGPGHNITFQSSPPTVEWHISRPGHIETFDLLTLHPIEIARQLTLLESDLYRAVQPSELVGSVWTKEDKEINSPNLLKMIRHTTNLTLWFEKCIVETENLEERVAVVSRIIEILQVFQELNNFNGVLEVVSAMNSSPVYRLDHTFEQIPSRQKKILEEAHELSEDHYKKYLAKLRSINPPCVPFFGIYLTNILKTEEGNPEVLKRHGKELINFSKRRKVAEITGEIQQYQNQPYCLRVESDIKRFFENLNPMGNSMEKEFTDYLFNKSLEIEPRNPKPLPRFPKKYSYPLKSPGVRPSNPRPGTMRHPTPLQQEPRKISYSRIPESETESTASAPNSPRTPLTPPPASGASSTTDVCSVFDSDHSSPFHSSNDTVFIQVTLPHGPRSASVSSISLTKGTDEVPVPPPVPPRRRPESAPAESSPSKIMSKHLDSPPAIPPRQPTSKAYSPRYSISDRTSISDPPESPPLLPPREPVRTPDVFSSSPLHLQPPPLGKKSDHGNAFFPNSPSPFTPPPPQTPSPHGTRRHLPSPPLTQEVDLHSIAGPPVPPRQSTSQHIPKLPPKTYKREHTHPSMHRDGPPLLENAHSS

SOS1-KRAS = SOS1-KRAS (Homo sapiens, UniProt Q07889); experiment: Inhibition of N-terminal His6-tagged human recombinant SOS1(564 to 1049 residues)/human recombinant KRAS G12C mutant incubated for 60 mins by HTRF assay

MRT at 24 h [2] [h] | AUC at 24 h (in vivo [6]) [ng·h/mL] | k el at 24 h [8] [s⁻¹] | Cmax at 24 h (in vivo [10]) [ng/mL] | Tmax at 24 h (in vivo [11]) [h] | half-life at 24 h [12] [h] | SMILES | Activity [1] | fraction unbound at 1 h, 2 µM [3] | fraction unbound at 1 h, 2 µM [4] | fraction unbound at 1 h, 2 µM [5] | Activity [7] | fraction unbound at 1 h, 2 µM [9] | IC50 [13] [nM] | IC50 (SOS1-KRAS) [nM]
8.31 | 5420 | 2.64e-05 | 433 | 5.67 | 7.23 | COCCN1CCN2c3cc4c(N[C@H](C)c5cccc(C(F)F)c5F)nc(C)nc4cc3OCC[C@H]2C1 | – | – | – | – | – | – | – | –
– | – | – | – | – | – | Cc1nc(N[C@H](C)c2cccc(C(F)F)c2F)c2cc3c(cc2n1)OC[C@H]1CN(C(=O)C2(C#N)CC2)CCN31 | – | – | – | – | – | – | 13 | 8.4
1.78 | 3180 | 0.000135 | 1580 | 0.333 | 1.47 | Cc1nc(N[C@H](C)c2cccc(C(F)F)c2F)c2cc3c(cc2n1)OCC[C@H]1CN(C(=O)c2cccnc2)CCN31 | – | – | – | – | – | – | – | –
7.64 | 10700 | 2.61e-05 | 645 | 3 | 7.39 | Cc1nc(N[C@H](C)c2cccc(C(F)F)c2F)c2cc3c(cc2n1)OCC[C@H]1CN(CC2COC2)CCN31 | – | – | – | – | – | – | – | –
9.58 | 3250 | 9.78e-06 | 191 | 3.5 | 20 | Cc1nc(N[C@H](C)c2cccc(C(F)F)c2F)c2cc3c(cc2n1)OCC[C@H]1CN(C)CCN31 | – | – | – | – | – | – | – | –
1.7 | 1610 | 0.000142 | 885 | 0.38 | 1.36 | Cc1nc(N[C@H](C)c2cccc(C(F)F)c2F)c2cc3c(cc2n1)OCC[C@H]1CN(C(=O)C2COC2)CCN31 | – | – | – | – | – | – | – | –
– | – | – | – | – | – | Cc1nc(N[C@H](C)c2cccc(C(F)F)c2F)c2cc3c(cc2n1)OCC[C@H]1CN(CC#N)CCN31 | – | – | – | – | – | – | 70 | –

SMILES | MRT at 24 h [2] [h] | AUC at 24 h (in vivo [6]) [ng·h/mL] | k el at 24 h [8] [s⁻¹] | Cmax at 24 h (in vivo [10]) [ng/mL] | Tmax at 24 h (in vivo [11]) [h] | half-life at 24 h [12] [h] | Activity [1] | fraction unbound at 1 h, 2 µM [3] | fraction unbound at 1 h, 2 µM [4] | fraction unbound at 1 h, 2 µM [5] | Activity [7] | fraction unbound at 1 h, 2 µM [9] | IC50 [13] [nM] | IC50 (SOS1-KRAS) [nM]
Cc1nc(N[C@H](C)c2cccc(C(F)F)c2F)c2cc3c(cc2n1)OCC[C@H]1CN(C(=O)[C@@H]2CCOC2)CCN31 | 2.89 | 7490 | 8.39e-05 | 1450 | 0.417 | 2.29 | Non-Toxic | 0.001 | 0.001 | 0.006 | Non-Toxic | 0.001 | – | –
Cc1nc(N[C@H](C)c2cccc(C(F)F)c2F)c2cc3c(cc2n1)OCC[C@H]1CN(c2ccnn2C)CCN31 | 4.47 | 48800 | 7.36e-05 | 4690 | 0.33 | 2.61 | Non-Toxic | 0.01 | 0.107 | 0.079 | Non-Toxic | 0.015 | – | –
